Patent US11639350B2, “Heteroaryldihydropyrimidine derivatives and methods of treating hepatitis B infections” (Janssen Pharmaceutica NV, priority 2018, dated 2023)

Tests used:
HBV = HBV inhibitory activity: HBV DNA in the culture medium of HepG2.2.15 cells by q-PCR; type: cell-based; conditions: HepG2.2.15 cells, 6 days of compound treatment, HBV DNA in culture medium by q-PCR, highest concentration 10 μM; read-out: EC50
In short: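 Supernatant HBV DNA quantified by q-PCR after a 6-day compound exposure, with one mid-course medium change, of HepG2.2.15 cells (stably integrated HBV; 40,000 per well, 2% FBS). Eight-point 3-fold series topped at 10 μM for antiviral EC50; separate plates of 5,000 cells per well with 100 μM top give CC50.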

HepG2.2.15 cells = experiment: Cytotoxicity determination in HepG2.2.15 cells (CCK-8); type: cell-based; conditions: 6 days of compound treatment, CCK-8, highest concentration 100 μM
In short: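 CC50 is from CCK-8 absorbance (450 nm, 630 nm reference) after 2.5 h with reagent. Before that, compounds were applied for six days, top concentration 100 μM, eight threefold dilutions, one mid-course medium change, to stably HBV-integrated HepG2.2.15 cells plated at 5,000/well in 2% FBS.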

Row | SMILES | EC50 (HBV) | CC50 (HepG2.2.15 cells)
1 | COC(=O)C1=C(C2CCC(NC(C)=O)C2)NC(c2nccs2)=NC1c1cccc(F)c1Cl (single isomer, unassigned) [Compound 62D, Methyl 6-(3-acetamidocyclopentyl)-4-(2-chloro-3-fluorophenyl)-2-(thiazol-2-yl)-1,4-dihydropyrimidine-5-carboxylate] | 892 nM | 75100 nM
2 | COC(=O)C1=C(C2CCN(S(=O)(=O)CC(=O)O)C2)NC(c2nccs2)=NC1c1ccc(F)cc1Cl (single isomer, unassigned) [Compound 214C, 2-((−3-(−6-(2-Chloro-4-fluorophenyl)-5-(methoxycarbonyl)-2-(thiazol-2-yl)-3,6-dihydropyrimidin-4-yl)pyrrolidin-1-yl)sulfonyl)acetic Acid] | 784 nM | > 100000 nM
3 | CCOC(=O)C1=C([C@@H]2C[C@H]2CC(=O)O)NC(c2nccs2)=NC1c1ccc(F)cc1Cl (single isomer, unassigned) [Compound 93, 2-(trans-2-(6-(2-Chloro-4-fluorophenyl)-5-(ethoxycarbonyl)-2-(thiazol-2-yl)-3,6-dihydropyrimidin-4-yl)cyclopropyl)acetic Acid] | 507 nM | 92500 nM
4 | CCOC(=O)C1=C(C2CCN(S(=O)(=O)C3CC(CC(=O)O)C3)CC2)NC(c2nccs2)=NC1c1ccc(F)c(F)c1Cl (centres unmarked) [Compound 482B, 2-(3-((4-(6-(2-Chloro-3,4-difluorophenyl)-5-(ethoxycarbonyl)-2-(thiazol-2-yl)-3,6-dihydropyrimidin-4-yl)piperidin-1-yl)sulfonyl)cyclobutyl)acetic Acid] | 11 nM | 11300 nM
5 | COC(=O)C1=C(C2CCN(S(=O)(=O)C3CC(C)(C(=O)OC)C3)CC2)NC(c2nccs2)=NC1c1ccc(F)c(F)c1Cl (single isomer, unassigned) [Compound 323D, cis-methyl 4-(2-chloro-3,4-difluorophenyl)-6-(1-((3-(methoxycarbonyl)-3-methylcyclobutyl)sulfonyl)piperidin-4-yl)-2-(thiazol-2-yl)-1,4-dihydropyrimidine-5-carboxylate] | 30 nM | 28600 nM
6 | COC(=O)C1=C(C2CCN(S(C)(=O)=O)CC2)NC(c2nccs2)=NC1c1ccc(F)cc1Br (single isomer, unassigned) [Compound 120B, Methyl 4-(2-bromo-4-fluorophenyl)-6-(1-(methylsulfonyl)-piperidin-4-yl)-2-(thiazol-2-yl)-1,4-dihydropyrimidine-5-carboxylate] | 154 nM | 16300 nM
7 | COC(=O)C1=C(C2CCOC2)NC(c2nccs2)=NC1c1cccc(F)c1Cl (single isomer, unassigned) [Compound 74A, Methyl 4-(2-chloro-3-fluorophenyl)-6-(tetrahydrofuran-3-yl)-2-(thiazol-2-yl)-1,4-dihydropyrimidine-5-carboxylate] | 88 nM | 33000 nM
8 | CCOC(=O)C1=C([C@H]2CC[C@H](C(=O)O)CO2)NC(c2nccs2)=NC1c1ccc(F)cc1Cl (single isomer, unassigned) [Compound 363H, (trans)-6-(6-(2-Chloro-4-fluorophenyl)-5-(ethoxycarbonyl)-2-(thiazol-2-yl)-3,6-dihydropyrimidin-4-yl)tetrahydro-2H-pyran-3-carboxylic Acid] | 650 nM | > 100000 nM
9 | COC(=O)C1=C(C2CCCC(C(=O)O)CC2)NC(c2nccs2)=NC1c1ccc(F)cc1Cl (single isomer, unassigned) [Compound 95C, 4-(6-(2-Chloro-4-fluorophenyl)-5-(methoxycarbonyl)-2-(thiazol-2-yl)-3,6-dihydropyrimidin-4-yl)cycloheptanecarboxylic Acid] | 117 nM | 33100 nM
10 | CCOC(=O)C1=C(C2CCN(S(=O)(=O)[C@H]3C[C@@](C)(C(=O)O)C3)CC2)NC(c2nccs2)=NC1c1ccc(F)cc1Cl (stereo partly drawn) [Compound 272B, (cis)-3-((4-(6-(2-Chloro-4-fluorophenyl)-5-(ethoxycarbonyl)-2-(thiazol-2-yl)-3,6-dihydropyrimidin-4-yl)piperidin-1-yl)sulfonyl)-1-methylcyclobutanecarboxylic Acid] | 47 nM | 20100 nM
